Assay results taken from patent US20250340575A1, “4-AMINOPYRROLO[2,1-F][1,2,4]TRIAZINES AND PREPARATION AND USES THEREOF” (Biosplice Therapeutics, Inc., priority 2024, published 2025).
pIC50: −log10 of the molar value. Blank lines part the entries; values can stand above or below the compound they belong to.

Target: recombinant DYRK1A kinase (Homo sapiens, UniProt Q13627)
Assay: DYRK1A kinase assay (Ser/Thr 18 peptide Z-lyte FRET)
Format: biochemical
Conditions: DYRK1A 0.25 μg/mL, ATP 15 μM, Ser/Thr peptide 18 4 μM, one hour at room temperature, 11-point dose-response from 10 μM
Description: Representative compounds were screened using the assay procedure for DYRK1A kinase activity as described below.
Each compound was dissolved in DMSO as a 10 mM stock and used to prepare compound source plates. Serial dilution (1:3, 11-point dose-response curves from 10 μM to 0.00016 μM) and compound transfer was performed using the ECHO 550 (Labcyte, Sunnyvale, CA) into 1536-well black-walled round bottom plates (Corning).
The DYRK1A kinase assay was run using the Ser/Thr 18 peptide Z-lyte assay kit according to manufacturer's instructions (Life Technologies—a Division of Thermo-Fisher). This is a non-radioactive assay using fluorescence resonance energy transfer (FRET) between coumarin and fluorescein to detect kinase activity which is represented as a ratio of coumarin emission/fluorescein emission.
Briefly, recombinant DYRK1A kinase, ATP and Ser/Thr peptide 18 were prepared in 1× Kinase buffer to final concentrations of 0.25 μg/mL, 15 μM, and 4 μM respectively. The mixture was allowed to incubate with the representative compounds for one hour at room temperature. All reactions were performed in duplicate. Unphosphorylated (“0% Control”) and phosphorylated (“100% control”) forms of Ser/Thr 18 served as control reactions. Additionally, an 11-point dose-response curve of Staurosporine (1 uM top) was run to serve as a positive compound control.
After incubation, Development Reagent A was diluted in Development Buffer then added to the reaction and allowed to further incubate for one hour at room temperature. The plate was read at Ex 400 Em 455 to detect the coumarin signal and Ex 400 Em 520 to measure the signal (EnVision Multilabel Plate Reader, PerkinElmer).
The Emission ratio (Em) was calculated as a ratio of the coumarin (C) emission signal (at 445 nm)/Fluorescein (F) emission signal (at 520 nm). The percent phosphorylation was then calculated using the following formula: [1−((Em ratio×F100%)−C100%)/((C0%−C100%)+(Em ratio×(F100%−F0%)))]. Dose-response curves were generated, and inhibitory concentration (IC50) values were calculated using non-linear regression curve fit in the Dotmatics' Studies Software (Bishops Stortford, UK).

SMILES: CC(=O)N1CC[C@H](Nc2nc(N)c3c(-c4ccc5nccn5n4)c(F)cn3n2)[C@H](F)C1 [Compound 38, 1-((3R,4S)-4-((4-Amino-6-fluoro-5-(imidazo[1,2-b]pyridazin-6-yl)pyrrolo [2,1-f][1,2,4]triazin-2-yl)amino)-3-fluoropiperidin-1-yl)ethan-1-one]
pIC50: 8.47

SMILES: Nc1nc(N[C@H]2CCN(C3COC3)C[C@H]2F)nn2cc(F)c(-c3ccc4nccn4n3)c12 [Compound 39, 6-Fluoro-N2-((3R,4S)-3-fluoro-1-(oxetan-3-yl)piperidin-4-yl)-5-(imidazo[1,2-b]pyridazin-6-yl)pyrrolo[2,1-f][1,2,4]triazine-2,4-diamine]
pIC50: 8.51

SMILES: CN1CC[C@@H](Nc2nc(N)c3c(-c4ccc5nccn5n4)c(F)cn3n2)C(F)(F)C1 [Compound 40, (R)—N2-(3,3-Difluoro-1-methylpiperidin-4-yl)-6-fluoro-5-(imidazo[1,2-b]pyridazin-6-yl)pyrrolo[2,1-f][1,2,4]triazine-2,4-diamine]
pIC50: 8.57

SMILES: CC(=O)N1CC[C@@H](Nc2nc(N)c3c(-c4ccc5nccn5n4)c(F)cn3n2)C(F)(F)C1 [Compound 41, (R)-1-(4-((4-Amino-6-fluoro-5-(imidazo[1,2-b]pyridazin-6-yl)pyrrolo[2,1-f][1,2,4]triazin-2-yl)amino)-3,3-difluoropiperidin-1-yl)ethan-1-one]
pIC50: 8.70

SMILES: Nc1nc(N[C@@H]2CCN(C3COC3)CC2(F)F)nn2cc(F)c(-c3ccc4nccn4n3)c12 [Compound 43, (R)—N2-(3,3-Difluoro-1-(oxetan-3-yl)piperidin-4-yl)-6-fluoro-5-(imidazo [1,2-b]pyridazin-6-yl)pyrrolo[2,1-f][1,2,4]triazine-2,4-diamine]
pIC50: 8.51

SMILES: CNc1nc(N[C@@H]2CCN(C(C)=O)CC2(F)F)nn2ccc(-c3ccc4nccn4n3)c12 [Compound 46, (R)-1-(3,3-Difluoro-4-((5-(imidazo[1,2-b]pyridazin-6-yl)-4-(methylamino)pyrrolo[2,1-f][1,2,4]triazin-2-yl)amino)piperidin-1-yl)ethan-1-one]
pIC50: 8.52

SMILES: CNc1nc(N[C@@H]2CCN(S(C)(=O)=O)CC2(F)F)nn2ccc(-c3ccc4nccn4n3)c12 [Compound 48, (R)—N2-(3,3-Difluoro-1-(methylsulfonyl)piperidin-4-yl)-5-(imidazo[1,2-b]pyridazin-6-yl)-N4-methylpyrrolo[2,1-f][1,2,4]triazine-2,4-diamine]
pIC50: 8.66

SMILES: CNc1nc(N[C@H]2CCN(C(C)=O)C[C@H]2F)nn2cc(F)c(-c3ccc4nccn4n3)c12 [Compound 53, 1-((3R,4S)-3-Fluoro-4-((6-fluoro-5-(imidazo[1,2-b]pyridazin-6-yl)-4-(methylamino)pyrrolo[2,1-f][1,2,4]triazin-2-yl)amino)piperidin-1-yl)ethan-1-one]
pIC50: 8.60

SMILES: CNc1nc(N[C@H]2CCN(C3COC3)C[C@H]2F)nn2cc(F)c(-c3ccc4nccn4n3)c12 [Compound 54, 6-Fluoro-N^2-((3R,4S)-3-fluoro-1-(oxetan-3-yl)piperidin-4-yl)-5-(imidazo [1,2-b]pyridazin-6-yl)-N^4-methylpyrrolo[2,1-f][1,2,4]triazine-2,4-diamine]
pIC50: 8.62

SMILES: CNc1nc(N[C@@H]2CCN(C)CC2(F)F)nn2cc(F)c(-c3ccc4nccn4n3)c12 [Compound 55, (R)—N^2-(3,3-Difluoro-1-methylpiperidin-4-yl)-6-fluoro-5-(imidazo[1,2-b]pyridazin-6-yl)-N^4-methylpyrrolo[2,1-f][1,2,4]triazine-2,4-diamine]
pIC50: 8.40

SMILES: CNc1nc(N[C@@H]2CCN(C3COC3)CC2(F)F)nn2cc(F)c(-c3ccc4nccn4n3)c12 [Compound 58, (R)—N^2-(3,3-Difluoro-1-(oxetan-3-yl)piperidin-4-yl)-6-fluoro-5-(imidazo[1,2-b]pyridazin-6-yl)-N^4-methylpyrrolo[2,1-f][1,2,4]triazine-2,4-diamine]
pIC50: 8.72

SMILES: Nc1nc(N[C@@H]2CCN(C3COC3)C[C@@H]2F)nn2ccc(-c3ccc4ncn(CCF)c4n3)c12 [Compound 116, N^2-((3S,4R)-3-Fluoro-1-(oxetan-3-yl)piperidin-4-yl)-5-(3-(2-fluoroethyl)-3H-imidazo[4,5-b]pyridin-5-yl)pyrrolo[2,1-f][1,2,4]triazine-2,4-diamine]
pIC50: 8.80

The remaining lines, values ahead:

pIC50: 8.85
SMILES: CNc1nc(N[C@@H]2CCN(C(C)=O)CC2(F)F)nn2cc(F)c(-c3ccc4nccn4n3)c12 [Compound 56, (R)-1-(3,3-Difluoro-4-((6-fluoro-5-(imidazo[1,2-b]pyridazin-6-yl)-4-(methylamino)pyrrolo[2,1-f][1,2,4]triazin-2-yl)amino)piperidin-1-yl)ethan-1-one]

pIC50: 8.92
SMILES: C[C@]1(O)CC[C@H](Nc2nc(N)c3c(-c4ccc5ncn(CCF)c5n4)ccn3n2)CC1 [Compound 112, (1r,4r)-4-((4-Amino-5-(3-(2-fluoroethyl)-3H-imidazo[4,5-b]pyridin-5-yl)pyrrolo[2,1-f][1,2,4]triazin-2-yl)amino)-1-methylcyclohexan-1-ol]

pIC50: 9.10
SMILES: CN1CC[C@H](Nc2nc(N)c3c(-c4ccc5ncn(CCF)c5n4)ccn3n2)[C@H](F)C1 [Compound 113, N^2-((3R,4S)-3-Fluoro-1-methylpiperidin-4-yl)-5-(3-(2-fluoroethyl)-3H-imidazo[4,5-b]pyridin-5-yl)pyrrolo[2,1-f][1,2,4]triazine-2,4-diamine]

pIC50: 8.80
SMILES: COCCN1CC[C@H](Nc2nc(N)c3c(-c4ccc5ncn(CCF)c5n4)ccn3n2)[C@H](F)C1 [Compound 114, N^2-((3R,4S)-3-Fluoro-1-(2-methoxyethyl)piperidin-4-yl)-5-(3-(2-fluoroethyl)-3H-imidazo[4,5-b]pyridin-5-yl)pyrrolo[2,1-f][1,2,4]triazine-2,4-diamine]

pIC50: 9.00
SMILES: CC(=O)N1CC[C@H](Nc2nc(N)c3c(-c4ccc5ncn(CCF)c5n4)ccn3n2)[C@H](F)C1 [Compound 115, 1-((3R,4S)-4-((4-Amino-5-(3-(2-fluoroethyl)-3H-imidazo[4,5-b]pyridin-5-yl)pyrrolo[2,1-f][1,2,4]triazin-2-yl)amino)-3-fluoropiperidin-1-yl)ethan-1-one]

pIC50: 9.05
SMILES: Nc1nc(N[C@H]2CCN(C3COC3)C[C@H]2F)nn2ccc(-c3ccc4ncn(CCF)c4n3)c12 [Compound 117, N^2-((3R,4S)-3-Fluoro-1-(oxetan-3-yl)piperidin-4-yl)-5-(3-(2-fluoroethyl)-3H-imidazo[4,5-b]pyridin-5-yl)pyrrolo[2,1-f][1,2,4]triazine-2,4-diamine]

pIC50: 9.30
SMILES: CC(=O)N1CC[C@@H](Nc2nc(N)c3c(-c4ccc5ncn(CCF)c5n4)ccn3n2)C(F)(F)C1 [Compound 118, (R)-1-(4-((4-Amino-5-(3-(2-fluoroethyl)-3H-imidazo[4,5-b]pyridin-5-yl)pyrrolo[2,1-f][1,2,4]triazin-2-yl)amino)-3,3-difluoropiperidin-1-yl)ethan-1-one]

pIC50: 8.85
SMILES: Nc1nc(N[C@@H]2CCN(C3COC3)CC2(F)F)nn2ccc(-c3ccc4ncn(CCF)c4n3)c12 [Compound 119, (R)—N^2-(3,3-Difluoro-1-(oxetan-3-yl)piperidin-4-yl)-5-(3-(2-fluoroethyl)-3H-imidazo[4,5-b]pyridin-5-yl)pyrrolo[2,1-f][1,2,4]triazine-2,4-diamine]
